Experimental data reported in patent publication US12551368B2, “Bioerodible ocular drug delivery insert and therapeutic method” (EyePoint Pharmaceuticals, Inc., priority 2020, dated 2026).

Experiments:
[1] = cited from earlier work
[2] = Intravitreal Pharmacokinetic Study of vorolanib insert (Example 5); type: in vivo, Male Dutch Belted Rabbits
Procedure: An Intravitreal Pharmacokinetic Study was performed in Male Dutch Belted Rabbits. The objective of this study was to characterize the plasma and ocular tissue pharmacokinetics of a vorolanib insert following bilateral intravitreal injection on Day 1. Animals were evaluated up to 24 months following placement of the intravitreal insert.
The low dose group (1) received 3 inserts per eye for a total dose of 630 μg per eye. The high dose group (2) animals received 6 inserts per eye given in 2 separate injections (3 inserts per injection) for a total dose of 1,260 μg per eye.
Prior to each scheduled sacrifice point, one whole blood sample was collected from a targeted 2 animals per group via puncture of a marginal ear vein. Samples were tested for levels of vorolanib and its metabolite. Two animals per group were euthanized on day 1 at 6, 12, 24 and 48 hours, on days 7 and 14, and at 1, 2, 4, 6, 8, 16 and 24 months.

[3] = 18 month intravitreal toxicity and plasma pharmacokinetics study of the insert (Example 6); type: in vivo; conditions: rabbit
Procedure: An 18 month intravitreal toxicity study for the insert was also performed in 80 Dutch Belted rabbits (40 male and 40 female). Animals were evaluated for a period of 6 and 18 months following placement of intravitreal inserts. The objective was to characterize the ocular toxicity, plasma pharmacokinetics and biodegradation of a vorolanib insert following bilateral intravitreal injection.
The tables below describe the group assignments and dose levels. For the toxicology groups, animals were sacrificed at 6 months and 18 months. For the plasma pharmacokinetic analysis, blood samples were collected at Days 1, 3, and 7 and then 1, 2, 3, 4, 5, 6, 12, 14, 16 and 18 Months
The placebo group (1) animals received two placebo inserts by injection in each eye. The low dose group (2) animals received 2 inserts in each eye. The mid dose group (3) animals received 3 inserts in each eye given in 2 separate injections. The high dose group (4) animals received 4 inserts in each eye given in 2 separate injections (2 inserts/injection). The highest dose group (5) animals received 6 inserts in each eye given in 2 separate injections (3 inserts/injection).
At each scheduled timepoint, whole blood was collected via puncture of a marginal ear vein. Samples were analyzed for clinical pathology and plasma pharmacokinetics. Animals were euthanized according to the schedules described above. […]

[4] = tested on: Laser-Induced Choroidal Neovascularization (CNV); experiment: Laser-Induced Choroidal Neovascularization (CNV) model, fluorescein angiography (Example 7); type: in vivo, Swine (Mini-pig)
Procedure: Safety and efficacy of a vorolanib insert were evaluated in a Swine (Mini-pig) Model of Laser-Induced Choroidal Neovascularization (CNV). The primary objective of this study was to evaluate the long-term safety and inhibition of vascular permeability and neovascularization in a laser-induced model of choroidal neovascularization (CNV) using a vorolanib insert in swine.
On the day of lasering (Groups 1-4) animals were treated with an 810 nm diode laser delivered through an indirect ophthalmoscope. Approximately 6 single laser spots were placed between retinal veins. Both eyes underwent laser treatment according to the schedule in the table above.
On the day of intravitreal injections animals were anesthetized and the eyes were aseptically prepared. […] Animals were allowed to recover normally from the procedure. The pigs were given a topical drop of antibiotic ophthalmic solution 4-6 hours later, and then BID for 2 additional days with at least 6 hours between doses. Animals were dosed on either Day 0 immediately following laser CNV induction or 7 days prior to laser CNV induction according to the schedule in the table above.
Flourescein Angiography was done in both eyes in anesthetized animals at the timepoints as indicated in the experimental design table.

CNC(=O)c1ccccc1Sc1ccc2c(/C=C/c3ccccn3)n[nH]c2c1 [axitinib, N-methyl-2-[3-((E)-2-pyridin-2-yl-vinyl)-1H-indazol-6-ylsulfanyl]-benzamide]
solubility in aqueous media ([1]; over the range pH 1.1 to pH 7.8): > 0.2 µg/mL

Cc1[nH]c(/C=C2\C(=O)Nc3ccc(F)cc32)c(C)c1C(=O)N[C@H]1CCN(C(=O)N(C)C)C1 [vorolanib, (S,Z)—N-(1-(Dimethylcarbamoyl)pyrrolidin-3-yl)-5-((5-fluoro-2-oxoindolin-3-ylidene)methyl)-2,4-dimethyl-1H-pyrrole-3-carboxamide]
dose proportionality of maximum observed concentrations in vitreous and retina/choroid ([2]; 630 vs 1,260 μg per eye, rabbit): nearly dose-proportional
vorolanib plasma levels ([2]; PK study, rabbit): low pg/mL range
change in plasma levels ([2]; after 99 days, rabbit): No apparent change
vorolanib levels in the vitreous and the retina/choroid relative to the IC50 for VEGFR ([2]; at the time points tested, rabbit): remained significantly above the IC50 for VEGFR
time at which steady state was reached ([2]; inserts in rabbit eye): ≤ 105 days
burst period of drug release in vivo ([2]; inserts in rabbit eye, followed by steady state): 90 days
vorolanib plasma levels ([3]; 2 to 6 inserts per eye, bilateral intravitreal, toxicology study): low pg/mL range
adverse findings ([3]; intravitreal, up to 6 inserts per eye): No adverse findings were attributed to vorolanib
solubility in water [1]: less than 0.1 μg/mL

aflibercept: VEGF inhibitor used as comparator, 2 mg, 50 μL/eye IVT
reduction in Corrected Total Lesion Fluorescence (CTLF) value ([4]; Day 7 to Day 28, Aflibercept (2 mg), 50 μL/eye IVT): largest reduction in CTLF values
overall efficacy in the CNV model ([4]; IVT, swine): normal amounts of efficacy in this model
